Assay results reported in patent publication US20110201648A1, “POLY-HETEROARYL DERIVATIVES FOR THE TREATMENT OF CANCER” (INSTITUT CURIE, priority 2008, published 2011).

SMILES | melting point
c1cc(-c2cnc(-c3ccc(-c4cnco4)o3)o2)nc(-c2cnc(-c3ccc(-c4cnco4)o3)o2)c1 [compound 6, 2,6-Bis(2-(5-(oxazol-5-yl)furan-2-yl)oxazol-5-yl)pyridine] | > 250 °C
c1cc(-c2cnco2)cc(-c2ncc(-c3cccc(-c4cnc(-c5cccc(-c6cnco6)c5)o4)n3)o2)c1 [compound 5, 2,6-Bis(2-(3-(oxazol-5-yl)phenyl)oxazol-5-yl)pyridine] | 254 to 256 °C
c1ccc(-c2ncc(-c3cccc(-c4cnc(-c5ccccn5)o4)n3)o2)nc1 [compound 1, 2,6-Bis[2-(pyridin-2-yl)oxazol-5-yl]pyridine] | 242 to 245 °C
c1cc(-c2cnc(-c3cccc(-c4cnco4)n3)o2)cc(-c2cnc(-c3cccc(-c4cnco4)n3)o2)c1 [compound 4, 1,3-Bis(2-(6-(oxazol-5-yl)pyridin-2-yl)oxazol-5-yl)benzene] | > 250 °C
